# Species: Rattus norvegicus
# Test: DrugMatrix - Regimen: Daily Repeat
# Assay type: toxicity, organism-based, Sprague-Dawley
# Set-up: regimen Daily Repeat, gender Male, age 6-8 weeks
# Conditions: in vivo, po, route oral GAVAGE, vehicle 100 % WATER; for ABSOLUTE BASOPHIL / ABSOLUTE EOSINOPHIL / ABSOLUTE LYMPHOCYTE / ABSOLUTE MONOCYTE / ABSOLUTE SEGMENTED NEUTROPHIL / BASOPHIL / EOSINOPHIL / ERYTHROCYTE COUNT / HEMATOCRIT / HEMOGLOBIN / LEUKOCYTE COUNT / LYMPHOCYTE / MEAN CORPUSCULAR HEMOGLOBIN / MEAN CORPUSCULAR HEMOGLOBIN CONCENTRATION / MEAN CORPUSCULAR VOLUME / MONOCYTE / NEUTROPHIL / NUCLEATED RED BLOOD CELLS / PLATELET COUNT: tissue Blood; for ALANINE AMINOTRANSFERASE / ALBUMIN / ALKALINE PHOSPHATASE / ASPARTATE AMINOTRANSFERASE / BLOOD UREA NITROGEN / CARBON DIOXIDE / CHLORIDE / CHOLESTEROL / CREATINE PHOSPHOKINASE / CREATININE / GLUCOSE / LACTATE DEHYDROGENASE / LIPASE / PHOSPHORUS / POTASSIUM / SODIUM / TOTAL BILIRUBIN / TOTAL PROTEIN / URIC ACID: tissue Plasma
# [1] = 0 mg/kg, 72 h, dose level Control, time 3 day
# [2] = 0 mg/kg, 120 h, dose level Control, time 5 day
# [3] = 3525 mg/kg, 72 h, dose level High, time 3 day
# [4] = 3525 mg/kg, 120 h, dose level High, time 5 day
smiles,measurement,setting,value
OCCO [ETHYLENE GLYCOL],ABSOLUTE BASOPHIL,[1],0 CELLS/uL
same,ABSOLUTE EOSINOPHIL,[1],0 CELLS/uL
same,ABSOLUTE LYMPHOCYTE,[1],7802.17 CELLS/uL
same,ABSOLUTE MONOCYTE,[1],13.5 CELLS/uL
same,ABSOLUTE SEGMENTED NEUTROPHIL,[1],617.67 CELLS/uL
same,BASOPHIL,[1],0%
same,EOSINOPHIL,[1],0%
same,ERYTHROCYTE COUNT,[1],5.35 x10E6/uL
same,HEMATOCRIT,[1],33.02%
same,HEMOGLOBIN,[1],12.88 G/DL
same,LEUKOCYTE COUNT,[1],8.43 x10E3/uL
same,LYMPHOCYTE,[1],92.67%
same,MEAN CORPUSCULAR HEMOGLOBIN,[1],24.12 pg
same,MEAN CORPUSCULAR HEMOGLOBIN CONCENTRATION,[1],39.03 G/DL
same,MEAN CORPUSCULAR VOLUME,[1],61.8 fL
same,MONOCYTE,[1],0.17%
same,NEUTROPHIL,[1],7.17%
same,NUCLEATED RED BLOOD CELLS,[1],0 /100WBC
same,PLATELET COUNT,[1],1124.83 x10E3/uL
same,ALANINE AMINOTRANSFERASE,[1],54.17 u/L
same,ALBUMIN,[1],4.07 G/DL
same,ALKALINE PHOSPHATASE,[1],383.83 u/L
same,ASPARTATE AMINOTRANSFERASE,[1],82.17 u/L
same,BLOOD UREA NITROGEN,[1],13.67 mg/dL
same,CARBON DIOXIDE,[1],31 mmol/L
same,CHLORIDE,[1],100.83 MEQ/L
same,CHOLESTEROL,[1],65.17 mg/dL
same,CREATINE PHOSPHOKINASE,[1],228.33 u/L
same,CREATININE,[1],0.12 mg/dL
same,GLUCOSE,[1],148 mg/dL
same,LACTATE DEHYDROGENASE,[1],97.83 u/L
same,LIPASE,[1],9.17 u/L
same,PHOSPHORUS,[1],9.75 mg/dL
same,POTASSIUM,[1],5.85 MEQ/L
same,SODIUM,[1],147.02 MEQ/L
same,TOTAL BILIRUBIN,[1],0.18 mg/dL
same,TOTAL PROTEIN,[1],6.1 G/DL
same,URIC ACID,[1],0.5 mg/dL
same,ABSOLUTE BASOPHIL,[2],0 CELLS/uL
same,ABSOLUTE EOSINOPHIL,[2],0 CELLS/uL
same,ABSOLUTE LYMPHOCYTE,[2],10538 CELLS/uL
same,ABSOLUTE MONOCYTE,[2],15.83 CELLS/uL
same,ABSOLUTE SEGMENTED NEUTROPHIL,[2],762.83 CELLS/uL
same,BASOPHIL,[2],0%
same,EOSINOPHIL,[2],0%
same,ERYTHROCYTE COUNT,[2],5.49 x10E6/uL
same,HEMATOCRIT,[2],34.63%
same,HEMOGLOBIN,[2],13.72 G/DL
same,LEUKOCYTE COUNT,[2],11.32 x10E3/uL
same,LYMPHOCYTE,[2],92.67%
same,MEAN CORPUSCULAR HEMOGLOBIN,[2],24.97 pg
same,MEAN CORPUSCULAR HEMOGLOBIN CONCENTRATION,[2],39.57 G/DL
same,MEAN CORPUSCULAR VOLUME,[2],63.05 fL
same,MONOCYTE,[2],0.17%
same,NEUTROPHIL,[2],7.17%
same,NUCLEATED RED BLOOD CELLS,[2],0.17 /100WBC
same,PLATELET COUNT,[2],802 x10E3/uL
same,ALANINE AMINOTRANSFERASE,[2],50.5 u/L
same,ALBUMIN,[2],4.07 G/DL
same,ALKALINE PHOSPHATASE,[2],336.83 u/L
same,ASPARTATE AMINOTRANSFERASE,[2],81 u/L
same,BLOOD UREA NITROGEN,[2],14.17 mg/dL
same,CARBON DIOXIDE,[2],32 mmol/L
same,CHLORIDE,[2],98.33 MEQ/L
same,CHOLESTEROL,[2],69.17 mg/dL
same,CREATINE PHOSPHOKINASE,[2],253.33 u/L
same,CREATININE,[2],0.13 mg/dL
same,GLUCOSE,[2],153.67 mg/dL
same,LACTATE DEHYDROGENASE,[2],157 u/L
same,LIPASE,[2],9 u/L
same,PHOSPHORUS,[2],10.78 mg/dL
same,POTASSIUM,[2],6.11 MEQ/L
same,SODIUM,[2],144.57 MEQ/L
same,TOTAL BILIRUBIN,[2],0.15 mg/dL
same,TOTAL PROTEIN,[2],6.05 G/DL
same,URIC ACID,[2],0.73 mg/dL
same,ABSOLUTE BASOPHIL,[3],0 CELLS/uL
same,ABSOLUTE EOSINOPHIL,[3],0 CELLS/uL
same,ABSOLUTE LYMPHOCYTE,[3],6464 CELLS/uL
same,ABSOLUTE MONOCYTE,[3],70.67 CELLS/uL
same,ABSOLUTE SEGMENTED NEUTROPHIL,[3],598.67 CELLS/uL
same,BASOPHIL,[3],0%
same,EOSINOPHIL,[3],0%
same,ERYTHROCYTE COUNT,[3],5.57 x10E6/uL
same,HEMATOCRIT,[3],33.43%
same,HEMOGLOBIN,[3],13.07 G/DL
same,LEUKOCYTE COUNT,[3],7.13 x10E3/uL
same,LYMPHOCYTE,[3],90.67%
same,MEAN CORPUSCULAR HEMOGLOBIN,[3],23.5 pg
same,MEAN CORPUSCULAR HEMOGLOBIN CONCENTRATION,[3],39.1 G/DL
same,MEAN CORPUSCULAR VOLUME,[3],60.17 fL
same,MONOCYTE,[3],1%
same,NEUTROPHIL,[3],8.33%
same,NUCLEATED RED BLOOD CELLS,[3],0 /100WBC
same,PLATELET COUNT,[3],918.33 x10E3/uL
same,ALANINE AMINOTRANSFERASE,[3],68 u/L
same,ALBUMIN,[3],3.93 G/DL
same,ALKALINE PHOSPHATASE,[3],332 u/L
same,ASPARTATE AMINOTRANSFERASE,[3],88.33 u/L
same,BLOOD UREA NITROGEN,[3],12.33 mg/dL
same,CARBON DIOXIDE,[3],36 mmol/L
same,CHLORIDE,[3],97.67 MEQ/L
same,CHOLESTEROL,[3],61 mg/dL
same,CREATINE PHOSPHOKINASE,[3],279 u/L
same,CREATININE,[3],0.1 mg/dL
same,GLUCOSE,[3],140 mg/dL
same,LACTATE DEHYDROGENASE,[3],110.33 u/L
same,LIPASE,[3],9 u/L
same,PHOSPHORUS,[3],9 mg/dL
same,POTASSIUM,[3],5.82 MEQ/L
same,SODIUM,[3],143.77 MEQ/L
same,TOTAL BILIRUBIN,[3],0.17 mg/dL
same,TOTAL PROTEIN,[3],5.7 G/DL
same,URIC ACID,[3],0.77 mg/dL
same,ABSOLUTE BASOPHIL,[4],0 CELLS/uL
same,ABSOLUTE EOSINOPHIL,[4],0 CELLS/uL
same,ABSOLUTE LYMPHOCYTE,[4],7667.33 CELLS/uL
same,ABSOLUTE MONOCYTE,[4],0 CELLS/uL
same,ABSOLUTE SEGMENTED NEUTROPHIL,[4],399.33 CELLS/uL
same,BASOPHIL,[4],0%
same,EOSINOPHIL,[4],0%
same,ERYTHROCYTE COUNT,[4],5.77 x10E6/uL
same,HEMATOCRIT,[4],35.47%
same,HEMOGLOBIN,[4],14.17 G/DL
same,LEUKOCYTE COUNT,[4],8.07 x10E3/uL
same,LYMPHOCYTE,[4],95.33%
same,MEAN CORPUSCULAR HEMOGLOBIN,[4],24.53 pg
same,MEAN CORPUSCULAR HEMOGLOBIN CONCENTRATION,[4],39.97 G/DL
same,MEAN CORPUSCULAR VOLUME,[4],61.43 fL
same,MONOCYTE,[4],0%
same,NEUTROPHIL,[4],4.67%
same,NUCLEATED RED BLOOD CELLS,[4],0 /100WBC
same,PLATELET COUNT,[4],1091.67 x10E3/uL
same,ALANINE AMINOTRANSFERASE,[4],54 u/L
same,ALBUMIN,[4],4.1 G/DL
same,ALKALINE PHOSPHATASE,[4],328.33 u/L
same,ASPARTATE AMINOTRANSFERASE,[4],80 u/L
same,BLOOD UREA NITROGEN,[4],14 mg/dL
same,CARBON DIOXIDE,[4],35.67 mmol/L
same,CHLORIDE,[4],96.33 MEQ/L
same,CHOLESTEROL,[4],66 mg/dL
same,CREATINE PHOSPHOKINASE,[4],238.33 u/L
same,CREATININE,[4],0.14 mg/dL
same,GLUCOSE,[4],145 mg/dL
same,LACTATE DEHYDROGENASE,[4],115.67 u/L
same,LIPASE,[4],9.33 u/L
same,PHOSPHORUS,[4],9.87 mg/dL
same,POTASSIUM,[4],6.09 MEQ/L
same,SODIUM,[4],144 MEQ/L
same,TOTAL BILIRUBIN,[4],0.17 mg/dL
same,TOTAL PROTEIN,[4],6.17 G/DL
same,URIC ACID,[4],0.73 mg/dL
